Test results published in the NIST ThermoML archive (doi:10.1016/j.jct.2004.11.020).
± gives the expanded uncertainty stated by the source.

Tests used:
[1] = 308.15 K, 101.33 kPa, Liquid; for speed of sound: Pulse-echo method
[2] = xn = mol fraction of the nth substance listed; details: 308.15 K, 101 kPa, Liquid; for speed of sound: Pulse-echo method

CC(O)CCO (stereo not drawn) [1,3-butanediol]
[1]
Details	mass density [kg/m3]	speed of sound [m/s]	viscosity [mPa·s]
–	991.28 ± 0.53	1496 ± 1.5	54.24 ± 1.2

CCC(O)CO (stereo not drawn) [1,2-butanediol]
[1]
Details	mass density [kg/m3]	speed of sound [m/s]	viscosity [mPa·s]
–	988.25 ± 1	1422.6 ± 2.2	30.29 ± 0.85

O=C1CCCN1 [2-pyrrolidinone]
[1]
Details	mass density [kg/m3]	speed of sound [m/s]	viscosity [mPa·s]
–	1097.14 ± 0.66	1600 ± 1.5	8.922 ± 0.23

CC(O)C(C)O (stereo not drawn) [2,3-butanediol] + O=C1CCCN1
[2]
Details	excess molar volume [m3/mol]	speed of sound [m/s]	viscosity [mPa·s]
x2 = 0.0199	1.9e-08 ± 9e-09	–	–
x2 = 0.0255	–	1458.7 ± 2.2	46.85 ± 1.4
x2 = 0.0339	3.3e-08 ± 9e-09	–	–
x2 = 0.0483	4.5e-08 ± 1e-08	–	–
x2 = 0.0507	–	1460.7 ± 2.2	41.26 ± 1.2
x2 = 0.0634	5.4e-08 ± 1e-08	–	–
x2 = 0.0737	6e-08 ± 1e-08	–	–
x2 = 0.0765	–	1463 ± 2.2	39.43 ± 1.1
x2 = 0.0885	7.5e-08 ± 1e-08	–	–
x2 = 0.1001	–	1466.3 ± 2.2	37.32 ± 1.1
x2 = 0.1008	8.2e-08 ± 1e-08	–	–
x2 = 0.1118	8.7e-08 ± 1e-08	–	–
x2 = 0.118	9.3e-08 ± 1e-08	–	–
x2 = 0.1313	9.9e-08 ± 1e-08	–	–
x2 = 0.1447	1.06e-07 ± 1e-08	–	–
x2 = 0.1489	–	1470.5 ± 2.1	32.26 ± 0.9
x2 = 0.1571	1.12e-07 ± 1e-08	–	–
x2 = 0.1702	1.17e-07 ± 1e-08	–	–
x2 = 0.185	1.29e-07 ± 1e-08	–	–
x2 = 0.1941	–	1475.2 ± 2.1	28.87 ± 0.79
x2 = 0.2191	1.39e-07 ± 1e-08	–	–
x2 = 0.2418	1.48e-07 ± 1e-08	–	–
x2 = 0.2675	1.54e-07 ± 1e-08	–	–
x2 = 0.2854	1.59e-07 ± 1e-08	–	–
x2 = 0.2955	–	1488.2 ± 2	23.79 ± 0.64
x2 = 0.3058	1.63e-07 ± 1e-08	–	–
x2 = 0.3226	1.67e-07 ± 1e-08	–	–
x2 = 0.3312	1.68e-07 ± 1e-08	–	–
x2 = 0.3459	1.71e-07 ± 1e-08	–	–
x2 = 0.3589	1.72e-07 ± 1e-08	–	–
x2 = 0.383	1.72e-07 ± 1e-08	–	–
x2 = 0.3899	–	1500.7 ± 1.9	19.82 ± 0.52
x2 = 0.3973	1.72e-07 ± 1e-08	–	–
x2 = 0.4043	1.73e-07 ± 1e-08	–	–
x2 = 0.4156	1.72e-07 ± 1e-08	–	–
x2 = 0.4506	1.71e-07 ± 1e-08	–	–
x2 = 0.4667	1.7e-07 ± 1e-08	–	–
x2 = 0.4926	1.69e-07 ± 1e-08	–	–
x2 = 0.5097	1.7e-07 ± 1e-08	–	–
x2 = 0.5261	1.7e-07 ± 1e-08	–	–
x2 = 0.5294	–	1520.3 ± 1.8	16.06 ± 0.42
x2 = 0.5431	1.67e-07 ± 1e-08	–	–
x2 = 0.5651	1.68e-07 ± 1e-08	–	–
x2 = 0.5844	1.65e-07 ± 1e-08	–	–
x2 = 0.5898	–	1529.2 ± 1.8	14.65 ± 0.38
x2 = 0.6052	1.6e-07 ± 1e-08	–	–
x2 = 0.6266	1.58e-07 ± 1e-08	–	–
x2 = 0.6501	1.52e-07 ± 1e-08	–	–
x2 = 0.6693	1.51e-07 ± 1e-08	–	–
x2 = 0.6894	1.45e-07 ± 1e-08	–	–
x2 = 0.6978	–	1546.9 ± 1.7	12.54 ± 0.33
x2 = 0.8089	–	1565.1 ± 1.6	11.22 ± 0.29
x2 = 0.8587	–	1573.7 ± 1.6	10.53 ± 0.27
x2 = 0.9067	–	1582 ± 1.6	9.623 ± 0.25
x2 = 0.9497	–	1590.4 ± 1.5	9.337 ± 0.24
x2 = 0.9702	–	1594.2 ± 1.5	9.114 ± 0.24

CCC(O)CO (stereo not drawn) [1,2-butanediol] + O=C1CCCN1
[2]
Details	excess molar volume [m3/mol]	speed of sound [m/s]	viscosity [mPa·s]
x2 = 0.027	–	1426.7 ± 2.2	28.33 ± 0.79
x2 = 0.0473	1.3e-08 ± 9e-09	–	–
x2 = 0.0512	–	1430.5 ± 2.2	27.12 ± 0.75
x2 = 0.0621	1.8e-08 ± 9e-09	–	–
x2 = 0.0786	2.4e-08 ± 9e-09	–	–
x2 = 0.0797	–	1435.2 ± 2.2	25.57 ± 0.7
x2 = 0.0977	–	1438.2 ± 2.2	24.38 ± 0.66
x2 = 0.0991	2.8e-08 ± 9e-09	–	–
x2 = 0.113	3.2e-08 ± 9e-09	–	–
x2 = 0.1263	3.6e-08 ± 9e-09	–	–
x2 = 0.142	4e-08 ± 9e-09	–	–
x2 = 0.1464	–	1446.3 ± 2.1	22.32 ± 0.6
x2 = 0.162	4.4e-08 ± 1e-08	–	–
x2 = 0.1937	–	1454.3 ± 2.1	20.82 ± 0.56
x2 = 0.1973	4.7e-08 ± 1e-08	–	–
x2 = 0.2456	5e-08 ± 1e-08	–	–
x2 = 0.2794	5.2e-08 ± 1e-08	–	–
x2 = 0.3017	–	1472.5 ± 2	17.81 ± 0.47
x2 = 0.3213	5.3e-08 ± 1e-08	–	–
x2 = 0.3797	5.2e-08 ± 1e-08	–	–
x2 = 0.4034	5.1e-08 ± 1e-08	–	–
x2 = 0.4061	–	1490.3 ± 1.9	15.69 ± 0.41
x2 = 0.4544	5e-08 ± 1e-08	–	–
x2 = 0.4753	4.9e-08 ± 1e-08	–	–
x2 = 0.5014	4.7e-08 ± 1e-08	–	–
x2 = 0.5017	–	1507.5 ± 1.9	14.09 ± 0.37
x2 = 0.5226	4.4e-08 ± 1e-08	–	–
x2 = 0.5643	4.1e-08 ± 1e-08	–	–
x2 = 0.5966	3.8e-08 ± 9e-09	–	–
x2 = 0.5983	–	1524.7 ± 1.8	12.68 ± 0.33
x2 = 0.6244	3.6e-08 ± 9e-09	–	–
x2 = 0.6571	3.3e-08 ± 9e-09	–	–
x2 = 0.688	2.9e-08 ± 9e-09	–	–
x2 = 0.7038	–	1543.6 ± 1.7	11.52 ± 0.3
x2 = 0.71	2.6e-08 ± 9e-09	–	–
x2 = 0.7348	2.4e-08 ± 9e-09	–	–
x2 = 0.7619	2e-08 ± 9e-09	–	–
x2 = 0.7843	1.7e-08 ± 9e-09	–	–
x2 = 0.798	–	1561 ± 1.6	10.78 ± 0.28
x2 = 0.8061	1.4e-08 ± 9e-09	–	–
x2 = 0.8374	1.2e-08 ± 9e-09	–	–
x2 = 0.8484	–	1570.6 ± 1.6	10.26 ± 0.27
x2 = 0.8607	1.1e-08 ± 9e-09	–	–
x2 = 0.8753	1e-08 ± 9e-09	–	–
x2 = 0.8878	9e-09 ± 9e-09	–	–
x2 = 0.9038	–	1580.6 ± 1.6	9.435 ± 0.25
x2 = 0.9039	8e-09 ± 9e-09	–	–
x2 = 0.924	7e-09 ± 9e-09	–	–
x2 = 0.9319	–	1586.6 ± 1.5	9.291 ± 0.24
x2 = 0.9469	6e-09 ± 9e-09	–	–
x2 = 0.9512	–	1590.1 ± 1.5	9.015 ± 0.24
x2 = 0.9599	5e-09 ± 9e-09	–	–
x2 = 0.9738	–	1594.7 ± 1.5	8.969 ± 0.24
x2 = 0.9885	3e-09 ± 9e-09	–	–
x2 = 0.9955	2e-09 ± 9e-09	–	–
